{"source": "BindingDB's records for doi:10.1016/S0893-133X(01)00285-8", "about": "(Novartis Pharma, 2001)", "key": {"[1]": {"molecular_target": "Delta-type opioid receptor (Homo sapiens, UniProt P41143)"}, "Substance-P receptor": {"molecular_target": "Substance-P receptor (Homo sapiens, UniProt P25103)", "sequence (P25103 whole entry)": "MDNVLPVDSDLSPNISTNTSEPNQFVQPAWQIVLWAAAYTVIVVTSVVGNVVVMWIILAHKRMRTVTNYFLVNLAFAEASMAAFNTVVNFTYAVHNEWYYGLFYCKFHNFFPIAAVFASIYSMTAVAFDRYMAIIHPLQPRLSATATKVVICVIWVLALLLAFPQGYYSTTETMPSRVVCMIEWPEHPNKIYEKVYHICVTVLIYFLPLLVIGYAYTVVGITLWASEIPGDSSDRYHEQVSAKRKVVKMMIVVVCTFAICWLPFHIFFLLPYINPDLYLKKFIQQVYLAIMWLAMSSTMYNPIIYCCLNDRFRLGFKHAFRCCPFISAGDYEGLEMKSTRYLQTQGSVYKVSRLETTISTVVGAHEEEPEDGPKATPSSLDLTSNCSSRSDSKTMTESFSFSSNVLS"}, "[2]": {"molecular_target": "Gastrin/cholecystokinin type B receptor (Homo sapiens, UniProt P32239)"}, "Adenosine receptor A1": {"molecular_target": "Adenosine receptor A1 (Homo sapiens, UniProt P30542)", "sequence (P30542 whole entry)": "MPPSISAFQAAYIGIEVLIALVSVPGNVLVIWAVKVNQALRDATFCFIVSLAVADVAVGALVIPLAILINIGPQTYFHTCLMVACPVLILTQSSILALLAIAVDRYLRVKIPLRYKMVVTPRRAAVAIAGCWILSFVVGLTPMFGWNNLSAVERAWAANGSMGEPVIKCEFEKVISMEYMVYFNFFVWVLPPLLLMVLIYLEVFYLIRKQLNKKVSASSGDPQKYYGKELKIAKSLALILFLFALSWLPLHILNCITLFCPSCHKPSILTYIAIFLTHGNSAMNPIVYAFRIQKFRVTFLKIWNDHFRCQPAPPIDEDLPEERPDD"}, "Adenosine receptor A2a": {"molecular_target": "Adenosine receptor A2a (Homo sapiens, UniProt P29274)"}, "Adenosine receptor A3": {"molecular_target": "Adenosine receptor A3 (Homo sapiens, UniProt P0DMS8)"}, "[3]": {"molecular_target": "5-hydroxytryptamine receptor 6 (Homo sapiens, UniProt P50406)"}, "[4]": {"molecular_target": "Kappa-type opioid receptor (Homo sapiens, UniProt P41145)", "sequence (P41145 whole entry)": "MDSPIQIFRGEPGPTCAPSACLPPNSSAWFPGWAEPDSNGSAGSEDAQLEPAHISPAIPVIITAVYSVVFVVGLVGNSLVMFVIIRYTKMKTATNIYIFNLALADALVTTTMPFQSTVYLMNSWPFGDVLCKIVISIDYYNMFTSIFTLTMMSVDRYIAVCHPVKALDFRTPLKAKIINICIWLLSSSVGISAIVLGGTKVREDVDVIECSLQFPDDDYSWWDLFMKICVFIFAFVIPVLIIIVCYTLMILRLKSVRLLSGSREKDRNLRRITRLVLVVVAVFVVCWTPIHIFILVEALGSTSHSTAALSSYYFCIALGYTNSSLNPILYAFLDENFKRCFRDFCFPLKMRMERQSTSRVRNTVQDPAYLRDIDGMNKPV"}, "Mu-type opioid receptor": {"molecular_target": "Mu-type opioid receptor (Homo sapiens, UniProt P35372)"}, "[5]": {"molecular_target": "Sodium-dependent dopamine transporter (Homo sapiens, UniProt Q01959)"}, "[6]": {"molecular_target": "Sodium-dependent noradrenaline transporter (Homo sapiens, UniProt P23975)", "sequence (P23975 whole entry)": "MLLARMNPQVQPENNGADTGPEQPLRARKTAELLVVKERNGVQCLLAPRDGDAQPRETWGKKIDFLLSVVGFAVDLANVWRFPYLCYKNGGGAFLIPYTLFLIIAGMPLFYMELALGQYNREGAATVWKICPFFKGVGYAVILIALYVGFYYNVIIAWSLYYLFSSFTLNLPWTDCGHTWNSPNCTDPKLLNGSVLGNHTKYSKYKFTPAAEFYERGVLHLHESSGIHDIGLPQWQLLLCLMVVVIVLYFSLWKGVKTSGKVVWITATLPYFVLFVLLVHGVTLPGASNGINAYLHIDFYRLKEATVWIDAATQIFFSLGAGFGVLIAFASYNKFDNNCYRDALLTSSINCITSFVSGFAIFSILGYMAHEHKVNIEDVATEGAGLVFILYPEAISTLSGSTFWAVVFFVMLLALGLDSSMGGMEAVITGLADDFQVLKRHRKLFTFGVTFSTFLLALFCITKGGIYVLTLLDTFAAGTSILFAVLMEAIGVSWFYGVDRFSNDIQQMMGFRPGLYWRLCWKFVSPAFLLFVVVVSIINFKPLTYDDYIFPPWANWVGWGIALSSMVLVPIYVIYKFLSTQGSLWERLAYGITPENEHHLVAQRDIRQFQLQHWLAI"}, "[7]": {"molecular_target": "5-hydroxytryptamine receptor 7 (Homo sapiens, UniProt P34969)", "sequence (P34969 whole entry)": "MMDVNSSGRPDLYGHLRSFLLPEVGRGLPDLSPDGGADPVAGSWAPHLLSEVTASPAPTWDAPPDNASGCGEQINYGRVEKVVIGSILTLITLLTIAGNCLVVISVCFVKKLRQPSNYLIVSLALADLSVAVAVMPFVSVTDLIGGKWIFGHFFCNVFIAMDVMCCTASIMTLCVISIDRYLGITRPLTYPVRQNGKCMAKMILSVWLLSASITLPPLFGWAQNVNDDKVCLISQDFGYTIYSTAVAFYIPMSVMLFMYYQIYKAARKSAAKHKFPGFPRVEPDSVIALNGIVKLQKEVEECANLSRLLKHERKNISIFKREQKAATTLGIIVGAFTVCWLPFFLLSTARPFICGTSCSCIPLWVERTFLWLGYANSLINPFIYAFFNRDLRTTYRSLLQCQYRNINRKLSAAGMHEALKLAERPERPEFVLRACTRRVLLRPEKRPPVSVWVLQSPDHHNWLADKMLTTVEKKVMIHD"}, "[8]": {"molecular_target": "Beta-2 adrenergic receptor (Homo sapiens, UniProt P07550)", "sequence (P07550 whole entry)": "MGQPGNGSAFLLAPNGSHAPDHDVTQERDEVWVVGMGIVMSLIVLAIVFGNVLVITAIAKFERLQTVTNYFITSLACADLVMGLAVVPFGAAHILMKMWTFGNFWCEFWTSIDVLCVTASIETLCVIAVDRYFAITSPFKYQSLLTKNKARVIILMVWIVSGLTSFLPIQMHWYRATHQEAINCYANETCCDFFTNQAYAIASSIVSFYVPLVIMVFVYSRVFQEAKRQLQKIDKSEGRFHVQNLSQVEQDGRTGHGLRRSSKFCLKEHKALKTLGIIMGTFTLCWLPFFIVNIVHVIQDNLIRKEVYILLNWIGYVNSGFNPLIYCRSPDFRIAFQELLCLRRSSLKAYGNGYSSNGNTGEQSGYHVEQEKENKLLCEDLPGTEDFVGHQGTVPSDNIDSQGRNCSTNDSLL"}, "[9]": {"molecular_target": "5-hydroxytryptamine receptor 3A (Homo sapiens, UniProt P46098)", "sequence (P46098 whole entry)": "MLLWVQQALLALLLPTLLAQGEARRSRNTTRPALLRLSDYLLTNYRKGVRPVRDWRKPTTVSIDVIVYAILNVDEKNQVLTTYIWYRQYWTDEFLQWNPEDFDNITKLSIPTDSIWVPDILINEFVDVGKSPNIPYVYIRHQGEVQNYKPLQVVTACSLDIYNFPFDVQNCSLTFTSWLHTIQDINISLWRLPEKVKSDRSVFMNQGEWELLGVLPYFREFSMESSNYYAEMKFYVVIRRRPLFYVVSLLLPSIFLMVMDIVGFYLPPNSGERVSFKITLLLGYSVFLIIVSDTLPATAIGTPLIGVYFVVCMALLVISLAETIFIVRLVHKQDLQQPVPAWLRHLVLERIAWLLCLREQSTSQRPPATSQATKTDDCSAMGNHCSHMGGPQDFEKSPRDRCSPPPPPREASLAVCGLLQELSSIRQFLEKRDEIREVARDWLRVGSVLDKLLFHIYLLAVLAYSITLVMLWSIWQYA"}, "Substance-K receptor": {"molecular_target": "Substance-K receptor (Homo sapiens, UniProt P21452)"}, "Neuromedin-K receptor": {"molecular_target": "Neuromedin-K receptor (Homo sapiens, UniProt P29371)", "sequence (P29371 whole entry)": "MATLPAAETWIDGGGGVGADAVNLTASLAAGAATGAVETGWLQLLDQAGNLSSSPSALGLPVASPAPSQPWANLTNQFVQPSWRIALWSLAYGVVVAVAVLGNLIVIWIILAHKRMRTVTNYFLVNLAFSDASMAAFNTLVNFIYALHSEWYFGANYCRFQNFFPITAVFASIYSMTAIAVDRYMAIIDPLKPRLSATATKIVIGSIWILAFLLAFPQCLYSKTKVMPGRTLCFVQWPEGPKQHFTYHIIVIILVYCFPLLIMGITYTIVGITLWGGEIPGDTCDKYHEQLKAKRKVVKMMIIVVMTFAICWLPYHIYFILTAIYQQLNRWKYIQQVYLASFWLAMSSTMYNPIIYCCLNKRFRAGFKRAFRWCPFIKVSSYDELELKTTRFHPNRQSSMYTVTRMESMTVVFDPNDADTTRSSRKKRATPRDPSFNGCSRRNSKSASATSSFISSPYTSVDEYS"}, "[10]": {"molecular_target": "Muscarinic acetylcholine receptor M3 (Homo sapiens, UniProt P20309)"}, "[11]": {"molecular_target": "Alpha-2B adrenergic receptor (Homo sapiens, UniProt P18089)", "sequence (P18089 whole entry)": "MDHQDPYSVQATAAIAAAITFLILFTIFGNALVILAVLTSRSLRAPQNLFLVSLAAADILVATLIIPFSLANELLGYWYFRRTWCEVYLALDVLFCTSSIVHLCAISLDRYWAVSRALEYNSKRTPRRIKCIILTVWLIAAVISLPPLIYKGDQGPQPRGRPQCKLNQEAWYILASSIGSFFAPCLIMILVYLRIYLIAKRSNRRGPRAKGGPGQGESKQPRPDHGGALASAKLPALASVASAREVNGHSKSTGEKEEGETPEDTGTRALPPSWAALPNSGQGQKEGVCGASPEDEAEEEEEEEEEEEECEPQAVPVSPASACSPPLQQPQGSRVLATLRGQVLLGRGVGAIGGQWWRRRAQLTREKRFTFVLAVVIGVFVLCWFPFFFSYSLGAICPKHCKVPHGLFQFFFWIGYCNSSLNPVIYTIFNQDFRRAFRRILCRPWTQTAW"}, "[12]": {"molecular_target": "Alpha-2C adrenergic receptor (Homo sapiens, UniProt P18825)", "sequence (P18825 whole entry)": "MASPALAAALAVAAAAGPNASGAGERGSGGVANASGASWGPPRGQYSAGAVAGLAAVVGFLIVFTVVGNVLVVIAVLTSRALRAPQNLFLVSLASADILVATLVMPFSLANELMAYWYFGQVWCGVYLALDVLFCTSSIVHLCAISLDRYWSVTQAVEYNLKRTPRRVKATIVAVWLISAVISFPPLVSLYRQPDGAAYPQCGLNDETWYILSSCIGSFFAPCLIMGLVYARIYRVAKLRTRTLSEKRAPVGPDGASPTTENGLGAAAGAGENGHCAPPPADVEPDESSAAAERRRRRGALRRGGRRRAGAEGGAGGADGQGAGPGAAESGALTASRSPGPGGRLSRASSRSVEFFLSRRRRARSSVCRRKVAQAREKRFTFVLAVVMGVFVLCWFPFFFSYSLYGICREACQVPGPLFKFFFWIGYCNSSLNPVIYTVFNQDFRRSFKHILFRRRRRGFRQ"}, "[13]": {"molecular_target": "Muscarinic acetylcholine receptor M2 (Homo sapiens, UniProt P08172)"}, "[14]": {"molecular_target": "Muscarinic acetylcholine receptor M1 (Homo sapiens, UniProt P11229)"}, "[15]": {"molecular_target": "Corticotropin-releasing factor receptor 2 (Homo sapiens) (UniProt Q13324)"}, "[16]": {"molecular_target": "Muscarinic acetylcholine receptor M4 (Homo sapiens, UniProt P08173)"}, "[17]": {"molecular_target": "Muscarinic acetylcholine receptor M5 (Homo sapiens, UniProt P08912)"}, "Cannabinoid receptor 1": {"molecular_target": "Cannabinoid receptor 1 (Homo sapiens, UniProt P21554)"}, "[18]": {"molecular_target": "Beta-1 adrenergic receptor (Homo sapiens, UniProt P08588)"}, "[19]": {"molecular_target": "Alpha-2A adrenergic receptor (Homo sapiens, UniProt P08913)", "sequence (P08913 whole entry)": "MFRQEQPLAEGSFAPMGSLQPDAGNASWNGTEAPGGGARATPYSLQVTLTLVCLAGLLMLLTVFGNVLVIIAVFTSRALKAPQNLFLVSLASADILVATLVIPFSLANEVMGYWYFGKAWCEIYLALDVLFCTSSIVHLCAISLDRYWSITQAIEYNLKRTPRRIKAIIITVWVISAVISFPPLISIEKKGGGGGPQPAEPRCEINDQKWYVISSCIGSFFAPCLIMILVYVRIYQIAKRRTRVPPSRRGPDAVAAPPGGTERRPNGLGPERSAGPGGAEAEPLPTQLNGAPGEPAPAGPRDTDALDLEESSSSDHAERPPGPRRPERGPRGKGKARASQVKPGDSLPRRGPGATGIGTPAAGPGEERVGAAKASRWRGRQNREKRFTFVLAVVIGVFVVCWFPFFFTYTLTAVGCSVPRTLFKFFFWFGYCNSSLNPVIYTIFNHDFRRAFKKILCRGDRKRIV"}}}
{"smiles": "COc1cc(C(C)=O)ccc1OCCCN1CCC(c2noc3cc(F)ccc23)CC1", "values": [{"measurement": "Ki", "setting": "[1]", "value": "> 10", "unit": "µM"}, {"measurement": "Ki", "setting": "Substance-P receptor", "value": "> 10", "unit": "µM"}, {"measurement": "Ki", "setting": "[2]", "value": 9.33, "unit": "µM"}, {"measurement": "Ki", "setting": "Adenosine receptor A1", "value": "> 10", "unit": "µM"}, {"measurement": "Ki", "setting": "Adenosine receptor A2a", "value": "> 10", "unit": "µM"}, {"measurement": "Ki", "setting": "Adenosine receptor A3", "value": "> 10", "unit": "µM"}, {"measurement": "Ki", "setting": "[3]", "value": 0.0631, "unit": "µM"}, {"measurement": "Ki", "setting": "[4]", "value": "> 10", "unit": "µM"}, {"measurement": "Ki", "setting": "Mu-type opioid receptor", "value": "> 10", "unit": "µM"}, {"measurement": "Ki", "setting": "[5]", "value": 2.95, "unit": "µM"}, {"measurement": "Ki", "setting": "[6]", "value": 1.48, "unit": "µM"}, {"measurement": "Ki", "setting": "[7]", "value": 0.112, "unit": "µM"}, {"measurement": "Ki", "setting": "[8]", "value": "> 10", "unit": "µM"}, {"measurement": "Ki", "setting": "[9]", "value": "> 10", "unit": "µM"}, {"measurement": "Ki", "setting": "Substance-K receptor", "value": "> 10", "unit": "µM"}, {"measurement": "Ki", "setting": "Neuromedin-K receptor", "value": "> 10", "unit": "µM"}, {"measurement": "Ki", "setting": "[10]", "value": "> 10", "unit": "µM"}, {"measurement": "Ki", "setting": "[11]", "value": 0.162, "unit": "µM"}, {"measurement": "Ki", "setting": "[12]", "value": 0.0162, "unit": "µM"}, {"measurement": "Ki", "setting": "[13]", "value": 3.31, "unit": "µM"}, {"measurement": "Ki", "setting": "[14]", "value": 4.9, "unit": "µM"}, {"measurement": "Ki", "setting": "[15]", "value": "> 10", "unit": "µM"}, {"measurement": "Ki", "setting": "[16]", "value": 8.32, "unit": "µM"}, {"measurement": "Ki", "setting": "[17]", "value": "> 10", "unit": "µM"}, {"measurement": "Ki", "setting": "Cannabinoid receptor 1", "value": "> 10", "unit": "µM"}, {"measurement": "Ki", "setting": "[18]", "value": "> 10", "unit": "µM"}, {"measurement": "Ki", "setting": "[19]", "value": 0.162, "unit": "µM"}]}
